Laboratory results from ChEMBL document CHEMBL4680222, “Sensitive fluorogenic substrates for sirtuin deacylase inhibitor discovery” (Eur J Med Chem, 2020).

Experiments:
[1] = biological target: T1, NAD-dependent protein deacylase sirtuin-5, mitochondrial (Homo sapiens, UniProt Q9NXA8); assay: Inhibition of human N-terminal His-tagged SIRT5 (34 to 302 residues) expressed in Escherichia coli using Ac-Tyr-Lys-Leu-Lys(Ac)-AMC as substrate preincubated for 10 mins followed by substrate addition and measured after 30 mins in presence of NAD+ by fluorescence assay
T1 sequence (Q9NXA8 whole entry, the tested form may be a part): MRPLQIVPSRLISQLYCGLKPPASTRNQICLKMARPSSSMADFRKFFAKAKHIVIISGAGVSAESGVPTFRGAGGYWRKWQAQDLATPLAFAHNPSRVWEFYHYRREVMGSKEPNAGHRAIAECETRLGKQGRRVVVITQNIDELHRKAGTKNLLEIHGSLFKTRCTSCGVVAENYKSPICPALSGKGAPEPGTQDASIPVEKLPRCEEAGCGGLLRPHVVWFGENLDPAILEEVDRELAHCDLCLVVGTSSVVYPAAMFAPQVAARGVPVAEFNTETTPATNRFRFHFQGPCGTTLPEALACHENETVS

[2] = biological target: T1, NAD-dependent protein deacylase sirtuin-5, mitochondrial; assay: Inhibition of human N-terminal His-tagged SIRT5 (34 to 302 residues) expressed in Escherichia coli using Ac-Leu-Gly-Ser-Lys(Su)-AMC as substrate preincubated for 10 mins followed by substrate addition and measured after 30 mins in presence of NAD+ by fluorescence assay
[3] = biological target: T1, NAD-dependent protein deacylase sirtuin-5, mitochondrial; assay: Inhibition of human N-terminal His-tagged SIRT5 (34 to 302 residues) expressed in Escherichia coli using Ac-His-Phe-Ser-Lys(Su)-AMC as substrate preincubated for 10 mins followed by substrate addition and measured after 30 mins in presence of NAD+ by fluorescence assay
[4] = biological target: T2, NAD-dependent protein deacetylase sirtuin-1 (Homo sapiens, UniProt Q96EB6); assay: Inhibition of human N-terminal His-tagged SIRT1 (183 to 664 residues) expressed in Escherichia coli using Ac-Arg-Leu-Ile-Lys(Ac)-AMC as substrate preincubated for 10 mins followed by substrate addition and measured after 30 mins in presence of NAD+ by fluorescence assay
T2 sequence (Q96EB6 whole entry): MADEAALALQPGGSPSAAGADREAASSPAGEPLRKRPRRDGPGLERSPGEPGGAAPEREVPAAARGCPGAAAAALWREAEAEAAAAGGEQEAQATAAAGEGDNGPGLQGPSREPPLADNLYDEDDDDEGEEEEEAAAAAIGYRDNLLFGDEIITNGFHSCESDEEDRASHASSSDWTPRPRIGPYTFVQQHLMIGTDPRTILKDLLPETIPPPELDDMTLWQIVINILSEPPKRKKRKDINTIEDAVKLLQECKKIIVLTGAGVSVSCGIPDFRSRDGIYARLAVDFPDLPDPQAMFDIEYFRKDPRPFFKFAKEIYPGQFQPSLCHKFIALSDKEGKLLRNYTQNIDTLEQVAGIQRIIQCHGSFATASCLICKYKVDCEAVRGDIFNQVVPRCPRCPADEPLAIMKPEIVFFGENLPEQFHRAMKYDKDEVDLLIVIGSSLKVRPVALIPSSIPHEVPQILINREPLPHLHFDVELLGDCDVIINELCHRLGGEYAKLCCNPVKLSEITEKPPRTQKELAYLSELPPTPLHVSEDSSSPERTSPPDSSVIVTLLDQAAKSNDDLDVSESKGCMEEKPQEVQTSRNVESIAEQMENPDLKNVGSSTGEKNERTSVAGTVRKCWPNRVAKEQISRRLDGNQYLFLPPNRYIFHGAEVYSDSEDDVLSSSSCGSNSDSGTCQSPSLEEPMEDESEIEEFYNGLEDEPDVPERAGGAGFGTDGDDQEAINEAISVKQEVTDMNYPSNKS

[5] = biological target: T2, NAD-dependent protein deacetylase sirtuin-1; assay: Inhibition of human N-terminal His-tagged SIRT1 (183 to 664 residues) expressed in Escherichia coli using Ac-Tyr-Lys-Leu-Lys(Ac)-AMC as substrate preincubated for 10 mins followed by substrate addition and measured after 30 mins in presence of NAD+ by fluorescence assay
[6] = biological target: T3, NAD-dependent protein deacetylase sirtuin-2 (Homo sapiens, UniProt Q8IXJ6); assay: Inhibition of human N-terminal His-tagged SIRT2 (56 to 356 residues) expressed in Escherichia coli using Ac-Arg-Leu-Ile-Lys(Ac)-AMC as substrate preincubated for 10 mins followed by substrate addition and measured after 30 mins in presence of NAD+ by fluorescence assay
T3 sequence (Q8IXJ6 whole entry): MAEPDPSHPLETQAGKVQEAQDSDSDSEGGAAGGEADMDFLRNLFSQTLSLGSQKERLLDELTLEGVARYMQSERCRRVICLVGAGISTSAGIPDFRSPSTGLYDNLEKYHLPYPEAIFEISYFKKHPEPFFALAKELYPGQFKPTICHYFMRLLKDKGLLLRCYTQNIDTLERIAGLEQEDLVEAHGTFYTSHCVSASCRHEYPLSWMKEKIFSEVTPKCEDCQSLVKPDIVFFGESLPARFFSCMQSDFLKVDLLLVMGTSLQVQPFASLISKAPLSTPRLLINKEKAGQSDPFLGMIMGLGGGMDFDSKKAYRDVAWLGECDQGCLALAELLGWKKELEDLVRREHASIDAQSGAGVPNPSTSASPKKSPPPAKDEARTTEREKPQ

[7] = biological target: T3, NAD-dependent protein deacetylase sirtuin-2; assay: Inhibition of human N-terminal His-tagged SIRT2 (56 to 356 residues) expressed in Escherichia coli using Ac-Ser-Ser-Ile-Lys(De)-AMC as substrate preincubated for 10 mins followed by substrate addition and measured after 30 mins in presence of NAD+ by fluorescence assay

Q: For `CC(C)c1ccccc1Cc1cc(C(=O)Nc2ccc(S(=O)(=O)c3ccccc3C(C)(C)C)cc2)c(O)c(O)c1O`, which IC50 [1] is on record?
A: The IC50 was 21.9 µM.

Q: And the IC50 [2]?
A: Its IC50 is 6.1 µM.

Q: What about the IC50 [3] of the same compound?
A: The IC50 was 6.6 µM.

Q: How did the IC50 [4] turn out when `c1cncc(-c2c[nH]nn2)c1` was run?
A: The IC50 was 261 µM.

Q: What about the IC50 [5] of the same compound?
A: The IC50 was 146 µM.

Q: Which IC50 [1] does the source give for `NC(=O)C1CCCc2c1[nH]c1ccc(Cl)cc21` (centres undefined) here?
A: The IC50 was over 200 µM.

Q: And the IC50 [2]?
A: Its IC50 is over 200 µM.

Q: With `Cc1ccc(C(=O)Nc2ccc(S(=O)(=O)O)c3cc(S(=O)(=O)O)cc(S(=O)(=O)O)c23)cc1NC(=O)c1cccc(NC(=O)Nc2cccc(C(=O)Nc3cc(C(=O)Nc4ccc(S(=O)(=O)O)c5cc(S(=O)(=O)O)cc(S(=O)(=O)O)c45)ccc3C)c2)c1` [SURAMIN] as the compound, how does the IC50 [6] read?
A: Its IC50 is 2.2 µM.

Q: And the IC50 [7]?
A: The IC50 was 23.3 µM.
